Measurements: patent US10238656B2, “Combination therapy for cancer” (Eli Lilly and Company, priority 2014, dated 2019)
Several values for one entry are separate records, joined by “and”; a condition that tells them apart may be missing. Equal values may be shown once.

Columns and labels:
[1] = test system: NCI-H441 xenograft tumors; experiment: Antitumor efficacy in NCI-H441 xenograft model, Study 2; assay type: in vivo, female Hsd athymic nude mice
From the text: (§1) Grow the human NSCLC line NCI-H441 or NCI-H2122 in RPMI 1640 medium+10% fetal bovine serum. Harvest sub-confluent cells with trypsin and rinse twice with growth medium without serum. For subcutaneous tumors, initiate growth by subcutaneous injection of 5×10^6 cells in a 1:1 mixture of Hank's balanced salt solution (HBSS) and Matrigel (BD Bioscience, Franklin Lakes, N.J.) in the rear flank of each subject animal. When mean tumors volumes reach approximately 150-200 mm^3 in size, randomize the animals by tumor size and body weight by randomization techniques well known in the art and place into their respective treatment groups using the number of animals per group as indicated.
(§2) Capture tumor size and body weight using Web Director. Estimate tumor volume (V) by using the formula: V=0.536L×W^2 where L=larger of measured diameter and W=smaller of perpendicular diameter. Transform the tumor volume data to a log scale to equalize variance across time and treatment groups. Analyze the log volume data with a two-way repeated measures analysis of variance by time and treatment using the MIXED procedures in SAS software (Version 9.3). The correlation model for the repeated measures is Spatial Power. Compare treated groups compared to the control group at each time point. Use the MIXED procedure also separately for each treatment group to calculate adjusted means and standard errors at each time point. Both analyses account for the autocorrelation within each animal and the loss of data that occurred when animals with large tumors were removed from the study early. Plot the adjusted means and standard errors for each treatment group versus time. Calculate relative changes in tumor volume (% T/C) using the tumor volume measurements taken nearest to the last day of dosing with Compound A, whereas the baseline tumor volume is the volume recorded on or just prior to first day of dosing. Calculate % T/C values using the formula % T/C=100×ΔT/ΔC, whereby T=mean tumor volume of the compound treated group, ΔT=mean tumor volume of the compound treated group minus the mean tumor volume on the baseline day, C=mean tumor volume of the control (vehicle) group, and ΔC=mean tumor volume of the control group minus the mean tumor volume on the baseline day. Tumor growth inhibition is observed in those instances where the calculated values for % T/C are less than 100% whereby greater inhibition results in smaller % T/C values. If ΔT was <0, then a tumor regression value was calculated instead of % T/C whereby % Regression=100×ΔT/Tinitial such that Tinitial=the grand mean of the tumor volume for all the treatment groups. Any negative values for % T/C listed are values for % Regression.
(§3) Assess antitumor efficacy of the combination of DC101 and Compound A by measuring tumor volume by three dimensional caliper measurements twice a week during the course of the study. Measure body weight twice weekly during the course of the study, as a general indicator of tolerability.
Formulations for Compound A and DC101: Formulate Compound A on a weekly basis in 1% hydroxyethyl cellulose (HEC) in 25 mM phosphate buffer (PB) at a pH of 2 and store at 4° C. Solubilize DC101 in phosphate buffered saline and store at 4° C.
Control Group: administer to the animals in the control group, both vehicles used for Compound A and DC101 according to the same schedules for each compound, respectively.
For the monotherapy groups, treat the animals with the desired compound as directed and with the vehicle for the compound not being dosed by following the schedule for the non-dosed compound.
Treat female Hsd athymic nude mice (n=7) bearing NCI-H441 xenograft tumors with Compound A by oral gavage (PO) once daily for 28 days at a dose of 50 or 75 mg/kg using 0.2 mL/dose. Administer Compound A starting after the mean tumor volumes reach approximately 150-200 mm^3 in size (day 36 after tumor implantation) and end treatment 28 days later (on day 63). […]

[2] = test system: NCI-H2122 xenograft tumors; experiment: Antitumor efficacy in NCI-H2122 xenograft model; assay type: in vivo, female Hsd athymic nude mice; conditions: Day 45
From the text: as §1
Capture tumor size and body weight using Web Director. Estimate tumor volume (V) by using the formula: V=0.536L×W^2 where L=larger of measured diameter and W=smaller of perpendicular diameter. Transform the tumor volume data to a log scale to equalize variance across time and treatment groups. […] Calculate relative changes in tumor volume (% T/C) using the tumor volume measurements taken nearest to the last day of dosing with Compound A, whereas the baseline tumor volume is the volume recorded on or just prior to first day of dosing. […] Tumor growth inhibition is observed in those instances where the calculated values for % T/C are less than 100% whereby greater inhibition results in smaller % T/C values. […]

[3] = test system: NCI-H441 xenograft tumors; experiment: Antitumor efficacy in NCI-H441 xenograft model, Study 1; assay type: in vivo, female Hsd athymic nude mice
From the text: as §1
as §2, with “Regression. […]” for “Regression.”

[4] = Body weight (tolerability), NCI-H2122 xenograft study; assay type: in vivo, female Hsd athymic nude mice; conditions: Compound A 50 or 75 mg/kg monotherapy
Method: as §3
Treat female Hsd athymic nude mice (n=8) bearing NCI-H2122 xenograft tumors with Compound A by oral gavage (PO) once daily for 28 days at a dose of 50 or 75 mg/kg using 0.2 mL/dose. Administer Compound A starting after the mean tumor volumes reach approximately 150-200 mm^3 in size (day 16 after tumor implantation) and end treatment on day 43. Measure tumor volume and body weight twice a week for the duration of the treatment period.
Treat female Hsd athymic nude mice (n=8) bearing NCI-H2122 xenograft tumors with DC101 by intraperitoneal injection at a dose 20 mg/kg. Administer DC101 starting after the mean tumor volumes reach approximately 150-200 mm^3 in size (day 16 after tumor implantation) and continue twice weekly for four weeks. Measure tumor volume and body weight twice a week for the duration of the treatment period.
Treat female Hsd athymic nude mice (n=8) bearing NCI-H2122 xenograft tumors with Compound A by oral gavage (PO) once daily for 28 days at a dose of 50 or 75 mg/kg using 0.2 mL/dose and intraperitoneal inject DC101 twice weekly at a dose of 20 mg/kg. […]

[5] = Body weight (tolerability), NCI-H441 xenograft Study 2; assay type: in vivo, female Hsd athymic nude mice
Method: as §3
(§4) Treat female Hsd athymic nude mice (n=7) bearing NCI-H441 xenograft tumors with Compound A by oral gavage (PO) once daily for 28 days at a dose of 50 or 75 mg/kg using 0.2 mL/dose. Administer Compound A starting after the mean tumor volumes reach approximately 150-200 mm^3 in size (day 36 after tumor implantation) and end treatment 28 days later (on day 63). Measure tumor volume and body weight twice a week for the duration of the treatment period.
Treat female Hsd athymic nude mice (n=7) bearing NCI-H441 xenograft tumors with DC101 twice weekly for four weeks by intraperitoneal injection at a dose 20 mg/kg. Administer DC101 starting after the mean tumor volumes reach approximately 150-200 mm^3 in size (day 36 after tumor implantation). Measure tumor volume and body weight twice a week for the duration of the treatment period.
Treat female Hsd athymic nude mice (n=7) bearing NCI-H441 xenograft tumors with Compound A by oral gavage once daily for 28 days at a dose of 50 mg/kg or 75 mg/kg using 0.2 mL/dose and intraperitoneal inject DC101 twice weekly at a dose of 20 mg/kg. […]

[6] = Body weight (tolerability), NCI-H441 xenograft Study 1; assay type: in vivo, female Hsd athymic nude mice; conditions: baseline (day 14) versus day 42
Method: as §3
as §4, with “(n=8)” for “(n=7)”, “gavage” for “gavage (PO)”, “100” for “75”, “15” for “36”, “42).” for “63).”
Treat female Hsd athymic nude mice (n=8) bearing NCI-H441 xenograft tumors with DC101 twice weekly for four weeks by intraperitoneal injection at doses of 10, 20 or 40 mg/kg. Administer DC101 starting after the mean tumor volumes reach approximately 150-200 mm^3 in size (day 15 after tumor implantation) and end on day 39. Measure tumor volume and body weight twice a week for the duration of the treatment period.
Treat female Hsd athymic nude mice (n=8) bearing NCI-H441 xenograft tumors with Compound A by oral gavage once daily for 28 days at a dose of 50 mg/kg using 0.2 mL/dose and intraperitoneal inject DC101 twice weekly at a dose of 20 mg/kg. […]

Stage IV NSCLC = experiment: Phase 1b study of abemaciclib in combination with ramucirumab, tumor response; assay type: in vivo, human; parameters: key: PR is partial response;; SD is stable disease;; PD is progressive disease;; NDR is no data reported; conditions: preliminary
Method: This study is a multicenter, nonrandomized, open-label, dose-escalation Phase 1b study of oral dosing of [5-(4-ethyl-piperazin-1-ylmethyl)-pyridin-2-yl]-[5-fluoro-4-(7-fluoro-3-isopropyl-2-methyl-3H-benzoimidazol-5-yl)-pyrimidin-2-yl]-amine at 100 mg, 150 mg, or 200 mg every 12 (±3) hours on Days 1 through 21 of a 21-day cycle. in combination with ramucirumab administered at 10 mg/kg over a 60-minute IV infusion followed by a 1-hour observation period on Day 1 of a 21-day cycle for patients with Stage IV NSCLC.
The primary objective of this study is to evaluate the safety and tolerability of [5-(4-ethyl-piperazin-1-ylmethyl)-pyridin-2-yl]-[5-fluoro-4-(7-fluoro-3-isopropyl-2-methyl-3H-benzoimidazol-5-yl)-pyrimidin-2-yl]-amine when administered orally in combination with ramucirumab to patients with Stage IV NSCLC using Common Terminology Criteria for Adverse Events (CTCAE version 4.0, NCI 2009).
The secondary objectives of the study are to document the antitumor activity of [5-(4-ethyl-piperazin-1-ylmethyl)-pyridin-2-yl]-[5-fluoro-4-(7-fluoro-3-isopropyl-2-methyl-3H-benzoimidazol-5-yl)-pyrimidin-2-yl]-amine when given in combination with ramucirumab; to determine the pharmacokinetics (PK) of [5-(4-ethyl-piperazin-1-ylmethyl)-pyridin-2-yl]-[5-fluoro-4-(7-fluoro-3-isopropyl-2-methyl-3H-benzoimidazol-5-yl)-pyrimidin-2-yl]-amine when given in combination with ramucirumab; and to characterize changes in patient-reported pain and disease-related symptoms collected via the MD Anderson Symptom Inventory-Lung Cancer (MDASI-LC).
[5-(4-Ethyl-piperazin-1-ylmethyl)-pyridin-2-yl]-[5-fluoro-4-(7-fluoro-3-isopropyl-2-methyl-3H-benzoimidazol-5-yl)-pyrimidin-2-yl]-amine is supplied as capsules at 100 mg, 150 mg, or 200 mg for oral administration.
Ramucirumab is supplied in a sterile, preservative-free solution for infusion of ramucirumab formulated in an aqueous solution at a concentration of […] (500 mg/50-mL vial). The buffer contains 10 mM histidine, 75 mM sodium chloride, 133 mM glycine, and 0.01% polysorbate 80, pH 6.0. Ramucirumab is supplied in single-use 50-mL nominal volume glass vials.
The first dose of ramucirumab is dependent upon the patient's baseline body weight in kilograms. Subsequent doses of ramucirumab must be recalculated if there is a ≥10% change (increase or decrease) in body weight from last dose calculation; subsequent doses may be recalculated if there is a <10% change (increase or decrease) in body weight from last dose calculation.

[7] = Compound A 50 mg/kg monotherapy
[8] = Compound A 75 mg/kg monotherapy
[9] = Compound A 50 mg/kg monotherapy, end of treatment period
[10] = abemaciclib 150 mg every 12 hours + ramucirumab 10 mg/kg IV Day 1 of 21-day cycle, individual patients 1-3
[11] = abemaciclib 200 mg every 12 hours + ramucirumab 10 mg/kg IV Day 1 of 21-day cycle, individual patients 4-8

## CCN1CCN(Cc2ccc(Nc3ncc(F)c(-c4cc(F)c5nc(C)n(C(C)C)c5c4)n3)nc2)CC1.CS(=O)(=O)O [Compound A, [5-(4-Ethyl-piperazin-1-ylmethyl)-pyridin-2-yl]-[5-fluoro-4-(7-fluoro-3-isopropyl-2-methyl-3H-benzoimidazol-5-yl)-pyrimidin-2-yl]-amine methanesulfonate]
[1]; Compound A 50 mg/kg PO once daily 28 days, Day 67
  % T/C: 7.0%
[1]; [7]
  combined frequency for stable disease and partial response (disease control rate): 4/7
  mice achieving complete regression: 2/7
[1]; Compound A 75 mg/kg PO once daily 28 days, Day 67
  regression: −4.8%
[1]; [8]
  combined frequency for stable disease and partial response (disease control rate): 6/7
  mice achieving complete regression: 3/7
[2]; Compound A 50 mg/kg PO once daily 28 days
  % T/C: 64.3%
[2]; Compound A 75 mg/kg PO once daily 28 days
  % T/C: 37.3%
[3]; [9]
  partial response (animals): 6/8
  stable disease (animals): 2/8
[3]; Compound A 100 mg/kg monotherapy, end of treatment period
  partial response (animals): 8/8
[3]; Compound A 100 mg/kg oral gavage once daily 28 days, study day 42
  mean percent regression: −22.8%
[4]
  changes in relative body weight: not statistically different from the control group
[5]; [7]
  maximum relative body weight loss: 5.5%
[5]; [8]
  maximum relative body weight loss: 5.1%
[6]; Compound A 50 mg/kg
  maximum relative body weight loss: 2.7%
[6]; Compound A 100 mg/kg
  maximum relative body weight loss: 4.7%

## CCN1CCN(Cc2ccc(Nc3ncc(F)c(-c4cc(F)c5nc(C)n(C(C)C)c5c4)n3)nc2)CC1 [abemaciclib, [5-(4-Ethyl-piperazin-1-ylmethyl)-pyridin-2-yl]-[5-fluoro-4-(7-fluoro-3-isopropyl-2-methyl-3H-benzoimidazol-5-yl)-pyrimidin-2-yl]-amine]
Stage IV NSCLC; [10]
  Overall Response: SD and PR and PD
  Target Response: SD and PR
Stage IV NSCLC; [11]
  Overall Response: SD (3×) and PD and PR
  Target Response: SD (2×) and PD and PR
